According to publication PMC3907537, “Evaluation of the Endothelin Receptor Antagonists Ambrisentan, Bosentan, Macitentan, and Sitaxsentan as Hepatobiliary Transporter Inhibitors and Substrates in Sandwich-Cultured Human Hepatocytes” (PLoS ONE, 2014):
Read-outs that look alike come from different tables or passages of the source.

Columns and labels:
Format in all cases: cell-based
[1] = target: T1, OATP1B1 (Homo sapiens, UniProt Q9Y6L6); experiment: OATP1B1 inhibition, Fluo 3 uptake in transfected CHO cells
T1 construct: host or cells: CHO
T1 sequence (Q9Y6L6 1-691): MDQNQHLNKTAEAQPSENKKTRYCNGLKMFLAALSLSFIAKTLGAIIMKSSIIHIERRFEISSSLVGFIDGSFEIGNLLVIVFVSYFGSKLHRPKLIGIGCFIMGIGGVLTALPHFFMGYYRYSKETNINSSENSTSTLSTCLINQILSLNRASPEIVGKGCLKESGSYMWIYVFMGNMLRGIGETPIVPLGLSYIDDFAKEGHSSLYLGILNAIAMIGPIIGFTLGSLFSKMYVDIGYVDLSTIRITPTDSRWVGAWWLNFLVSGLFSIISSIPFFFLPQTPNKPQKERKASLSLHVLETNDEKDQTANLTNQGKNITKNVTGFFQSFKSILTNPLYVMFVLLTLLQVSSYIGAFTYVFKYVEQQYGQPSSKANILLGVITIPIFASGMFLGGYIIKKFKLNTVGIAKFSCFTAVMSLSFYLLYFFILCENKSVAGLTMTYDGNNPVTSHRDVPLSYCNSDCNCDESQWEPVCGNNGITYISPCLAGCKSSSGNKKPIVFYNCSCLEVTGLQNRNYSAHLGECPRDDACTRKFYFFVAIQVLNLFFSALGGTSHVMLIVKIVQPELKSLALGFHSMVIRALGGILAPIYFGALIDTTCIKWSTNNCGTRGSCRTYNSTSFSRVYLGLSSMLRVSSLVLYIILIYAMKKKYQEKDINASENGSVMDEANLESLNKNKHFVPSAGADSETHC
Description: (§1) Chinese Hamster Ovary (CHO) cells were obtained from Professor B. Stieger’s laboratory at University of Zurich, Zurich, Switzerland. Madin-Darby Canine Kidney strain II (MDCKII) cells were obtained from Nederlands Kanker Instituut (NKI), Amsterdam, Netherlands. NTCP-CHO cells, BSEP and MRP2 membrane vesicles were developed and validated at Solvo Biotechnology, Budaors, Hungary.
CHO cells, either wild type or transfected with the genes encoding human NTCP, OATP1B1 and OATP1B3, were maintained in Dulbecco’s Modification of Eagle’s Medium (DMEM) containing 1,000 mg/L D-glucose, L-glutamine, 25 mM HEPES buffer, 110 mg/L sodium pyruvate, 1% Penicillin/Streptomycin, 10% fetal bovine serum (FBS), 0.05 mg/mL L proline and 0.5 mg/mL of geneticin G-418. Cells were maintained in incubators set at 37°C, 90% humidity and 5% CO2. OATP1B1 and OATP1B3 over-expressing cells were seeded in BioCoat Poly-D-Lysine coated 96-well black cell culture plates with clear bottoms at a density of 1×10^5 cells/well. Sodium butyrate (10 mM) was added to the OATP1B1 and OATP1B3 cells once seeded to increase the protein expression level and the cells were grown to confluence overnight. The assay buffer contained 142 mM NaCl, 5 mM KCl, 1 mM KH2PO4, 1.2 mM MgSO4, 1.5 mM CaCl2, 5 mM Glucose and 12.5 mM HEPES (pH 7.4). After removal of the media and before adding test compounds, the cells were washed twice with 37°C assay buffer followed by a 0.5 h pre-incubation with assay buffer. […] Wells were analyzed for Fluo 3 fluorescence at an excitation of 485 nm and emission of 530 nm. Inhibition of NTCP was studied using similar conditions to those described for OATP1B1 and OATP1B3 except that inhibition of the uptake ^3H taurocholate into transfected CHO cells was monitored using radioactive scintillation counting.
All assays were performed in duplicate. […] IC50 values were calculated using non-linear fitting of % inhibition versus concentration to a sigmoidal curve with a variable Hill Coefficient using GraphPad Prism 5 (GraphPad Software Inc., San Diego, CA).

[2] = target: T2, BCRP (Homo sapiens, UniProt Q9UNQ0); experiment: BCRP inhibition in MDCKII-ABCG2 cells; settings: mean ± SD of 3 independent studies in duplicate, tested 0.14–100 µM
T2 construct: host or cells: MDCKII
T2 sequence (Q9UNQ0 1-655): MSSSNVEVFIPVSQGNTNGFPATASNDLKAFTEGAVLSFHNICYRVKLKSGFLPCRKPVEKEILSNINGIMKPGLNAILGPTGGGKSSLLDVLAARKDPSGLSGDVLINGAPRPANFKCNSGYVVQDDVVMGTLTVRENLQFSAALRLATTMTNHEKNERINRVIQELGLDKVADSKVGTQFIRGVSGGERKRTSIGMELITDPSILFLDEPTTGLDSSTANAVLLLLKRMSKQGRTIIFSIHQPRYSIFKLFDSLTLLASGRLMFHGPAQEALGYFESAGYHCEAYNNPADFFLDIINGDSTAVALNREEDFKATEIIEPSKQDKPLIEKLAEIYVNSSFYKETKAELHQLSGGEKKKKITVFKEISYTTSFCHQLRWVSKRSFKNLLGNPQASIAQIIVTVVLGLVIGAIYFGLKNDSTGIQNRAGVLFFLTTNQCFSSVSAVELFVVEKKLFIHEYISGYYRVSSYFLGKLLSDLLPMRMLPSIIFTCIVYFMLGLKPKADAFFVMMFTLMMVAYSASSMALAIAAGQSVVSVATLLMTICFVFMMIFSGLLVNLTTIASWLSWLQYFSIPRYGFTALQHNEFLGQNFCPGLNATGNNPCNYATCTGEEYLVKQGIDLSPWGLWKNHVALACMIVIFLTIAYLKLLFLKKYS
Description: as §1
(§2) MDCKII cells were maintained in DMEM with sodium pyruvate, Glutmax, 1% Penicillin/Streptomycin and 10% FBS in an incubator set at 37°C, 90% humidity and 5% CO2. MDCKII cells were seeded in 96-well black cell culture plates with clear bottoms at a density of 5×10^4 cells/well for Pgp and 2×10^4 cells/well for BCRP and grown to confluence. For the Pgp assay, test compounds were serially diluted in DMSO and then added into in cell culture medium (without FBS) containing 10 µM Calcein AM and incubated for 1 h. Following the removal of media containing Calcein AM and test compound, cells were washed five times with […] phosphate buffered saline containing magnesium and calcium (PBS). Wells were analyzed for Calcein AM fluorescence at an excitation of 494 nm and an emission of 517 nm. For the BCRP assay, test compounds were serially diluted DMSO and then spiked in cell culture medium (without FBS) containing 1 µM pheophorbide a (PhA) and incubated for 18 hours with MDCKII-ABCG2 cells. Following the removal of media containing PhA and test compound, cells were then washed five times with PBS. Wells were analyzed for PhA fluorescence at an excitation of 415 nm and an emission of 675 nm.
(§3) All assays were performed in duplicate. IC50 was defined as the test article concentration needed to inhibit the maximal transporter specific accumulation by 50%. IC50 values were calculated using non-linear fitting of % inhibition versus concentration to a sigmoidal curve with a variable Hill Coefficient using GraphPad Prism 5 (GraphPad Software Inc., San Diego, CA).

[3] = target: T3, Pgp (Homo sapiens, UniProt P08183); experiment: Pgp inhibition, Calcein AM in MDCKII cells; settings: mean ± SD of 3 independent studies in duplicate, tested 0.14–100 µM
T3 construct: host or cells: MDCKII
T3 sequence (P08183 whole entry): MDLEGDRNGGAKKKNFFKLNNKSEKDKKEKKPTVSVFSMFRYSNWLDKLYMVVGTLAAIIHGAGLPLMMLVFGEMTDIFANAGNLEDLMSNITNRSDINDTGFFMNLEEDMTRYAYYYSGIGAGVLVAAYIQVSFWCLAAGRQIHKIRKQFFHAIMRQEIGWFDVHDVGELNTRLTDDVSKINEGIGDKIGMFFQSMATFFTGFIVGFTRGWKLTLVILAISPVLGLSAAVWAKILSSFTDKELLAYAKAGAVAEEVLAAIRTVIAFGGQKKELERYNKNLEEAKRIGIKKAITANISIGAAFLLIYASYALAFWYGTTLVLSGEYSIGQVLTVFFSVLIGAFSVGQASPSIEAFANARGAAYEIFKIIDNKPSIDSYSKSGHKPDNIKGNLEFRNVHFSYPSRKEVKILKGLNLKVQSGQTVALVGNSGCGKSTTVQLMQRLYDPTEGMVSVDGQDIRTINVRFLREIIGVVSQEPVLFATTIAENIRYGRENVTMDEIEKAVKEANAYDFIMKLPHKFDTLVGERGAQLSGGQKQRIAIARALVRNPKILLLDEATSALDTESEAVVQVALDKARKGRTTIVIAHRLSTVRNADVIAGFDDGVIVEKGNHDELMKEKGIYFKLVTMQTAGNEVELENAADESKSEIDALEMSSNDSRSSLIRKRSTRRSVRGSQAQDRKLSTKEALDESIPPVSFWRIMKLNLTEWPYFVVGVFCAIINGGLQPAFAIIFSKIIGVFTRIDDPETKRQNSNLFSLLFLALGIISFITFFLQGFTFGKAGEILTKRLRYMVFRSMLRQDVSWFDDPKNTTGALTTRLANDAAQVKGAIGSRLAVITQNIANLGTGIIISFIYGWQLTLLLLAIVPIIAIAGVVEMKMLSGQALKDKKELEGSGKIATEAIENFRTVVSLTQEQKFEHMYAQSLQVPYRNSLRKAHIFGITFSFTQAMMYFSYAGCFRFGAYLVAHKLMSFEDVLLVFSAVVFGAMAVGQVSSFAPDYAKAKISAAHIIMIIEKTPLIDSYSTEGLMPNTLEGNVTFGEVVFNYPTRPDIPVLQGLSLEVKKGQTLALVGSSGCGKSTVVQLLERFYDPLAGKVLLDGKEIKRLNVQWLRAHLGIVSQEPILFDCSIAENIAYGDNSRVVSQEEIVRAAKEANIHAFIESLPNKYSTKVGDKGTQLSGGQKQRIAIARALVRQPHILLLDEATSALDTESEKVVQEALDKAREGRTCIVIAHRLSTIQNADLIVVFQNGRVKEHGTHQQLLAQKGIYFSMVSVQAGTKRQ
Description: as §1, §2, §3

[4] = CHO cells, Fluo 3, mean ± SD of 3 independent studies in duplicate, tested 0.14–100 µM, read-out: OATP1B1 IC50

| IC50 [1, 4] [µM] | IC50 [2] [µM] | IC50 [3] [µM] | IC50 [1] [µM] | Structure (SMILES) |
| --- | --- | --- | --- | --- |
| 5 ± 2 | > 100 | > 100 |  | COc1ccccc1Oc1c(NS(=O)(=O)c2ccc(C(C)(C)C)cc2)nc(-c2ncccn2)nc1OCCO [bosentan] |
| 2 ± 0.3 | 75 ± 37 | 64 ± 15 |  | CCCNS(=O)(=O)Nc1ncnc(OCCOc2ncc(Br)cn2)c1-c1ccc(Br)cc1 [macitentan] |
|  | > 100 | > 100 | 47 ± 21.3 | COC(c1ccccc1)(c1ccccc1)[C@H](Oc1nc(C)cc(C)n1)C(=O)O [ambrisentan] |
